# Assays:
# human macrophages [1] = test: Stimulation assay: TNF-α production (ELISA) by macrophages seeded on PA-containing polyelectrolyte multilayers; type: cell-based
# Source text: Cell Culture. Whole blood samples were purchased at the “Etablissement Français du Sang” (EFS, Strasbourg, France). Peripheral mononuclear blood cells (PBMC) from healthy individuals, seronegative for […] and hepatitis B and C were isolated from buffy coat by Ficoll/Hypaque centrifugation and were washed twice in phosphate-buffered saline without Ca^2+/Mg^2+. Monocytes were isolated from whole-blood and separated by counter-current centrifugal elutriation of the peripheral mononuclear cells.^[40] Purity was measured by flow cytometry staining with fluorochrome antibodies (Becton Dickinson, PharMingen, San Diego, Calif.) to CD3 (T cells), CD19 (B cells), CD14 (monocytes) and CD45 (leukocytes). Monocytes were diluted at 1.5×10^6 cells mL^−1 in AIM lymphocytes SVF free medium with Glutamax, 100 U mL^−1 GM-CSF (PeproTech, Rocky Hill, USA). Culture medium was changed after 3 days of culture, and at day 5 macrophages were washed twice with RPMI at 37° C.
# Polyelectrolyte multilayered film preparation. Polyelectrolyte multilayers were always prepared on glass coverslips (CML, France) pretreated for 15 min at 100° C. with 10^−2 M SDS and 0.12 N HCl, and then extensively rinsed with deionised water. Glass coverslips were deposited in 24-well plates (Nunc, Denmark). All the solutions (polyelectrolyte, PA and rinsing) used for the film constructions contained 0.15 M NaCl with a pH adjusted to 7.4. At this pH both polylysine and polyglutamic acid are almost fully charged, be they l or d enantiomers so that they should not form stereocomplexes in solution. The films were constructed with polyelectrolyte (resp. PA) solutions at 1 mg·mL^−1 (resp. 200 μg·mL^−1) of polyelectrolytes (resp. PA). The film construction was performed as follows: First a precursor film constituted by (PlL/PlGA)5-PlL was built. In each deposition step, the surface is brought in contact with the polyelectrolyte solution for 20 mins followed by another contact with the rinsing solution for 5 mins. This rinsing step is repeated 3 times before adsorption of the polyelectrolyte of opposite charge. After the buildup of the precursor film, PA was adsorbed on the positively charged PlL terminating the precursor film during an overnight contact with PA solution. This film was then rinsed and the additional (PL/PGA)n-PL film was built by using PL and PGA solutions containing (x/100) mg·mL^−1 of PdL (resp. PdGA) and (1-x/100) mg·mL^−1 of PlL (resp. PlGA). All the films were then sterilized for 10 mins by ultraviolet light (254 nm). Before use, the architectures were put in contact with 1 mL of RPMI without serum during 24 h. It is possible that when the films are brought in contact with the culture medium, their structure and thickness change, the structure of the multilayers being dependent on many different physico-chemical parameters.^[41-43] However, such changes cannot explain the different biological effects that are observed in this study. […] One can also notice that the films were built at room temperature whereas the experiments with cells were realized at 37° C.
# Stimulation assays. Stimulation assays involving polyelectrolyte films were conducted by seeding 5×10^5 cells (macrophages) onto the PA-containing polyelectrolyte multilayers prepared on glass coverslips and placed into the wells of 24-well plates. TNF-α production by cells was measured by ELISA. TNF-α levels were detected by an enzyme immunoassay (Endogen Products, Woburn, Mass.). All experiments were repeated twice and were performed at 37° C.
# For multilayer films containing embedded PA, the proteins were always adsorbed on a (PlL/PlGA)5-PlL precursor film in order to keep the adsorption process (in particular the amount of adsorbed proteins) unaffected by the d/l composition of the film. The multilayer with a given d/l composition was then further deposited on top of the (PlL/PlGA)5-PlL-PA architecture and is constituted by n additional pairs of layers. […]
# macrophages = test: Confocal laser scanning microscopy of films in contact with cells (film degradation, contact with embedded protein A); type: cell-based, human; details: protein A embedded under 20 pairs of (PlGA/PlL) layers
# Description: Confocal laser scanning microscopy. For the confocal laser scanning microscopy (CLSM) based investigations, the films were imaged in liquid conditions. CLSM observations were carried out with a Zeiss LSM 510 microscope using a ×40/1.4 oil immersion objective and with 0.4 μm z-section intervals. FITC fluorescence was detected after excitation at 488 nm, cutoff dichroic mirror 488 nm, and emission band pass filter 505-530 nm (green). Virtual vertical sections can be visualized, allowing the thickness of the film to be determined.
# In previous experiments, the inventors could visualize the pseudopods developing through the multilayer down to the protein A layer.^[19] […] The progressive degradation of the (PlGA/PlL)n film as a function of contact time with the cells is visualized in FIGS. 2a-2c.
# The inventors have seen that the film thickness depends upon the d/l ratio of the build-up polyelectrolyte solutions and in particular that it decreases when x increases from 0 up to 50%. On the other hand, for a given number of deposited pairs of layers, the biological activity decreases when x increases. The variations of the biological effects can thus not be attributed to changes of the film thickness with x. The biological effects can rather be explained by a continuous degradation and pseudopod development through the multilayered films^[19] as already found on (PlL/PlGA)n films. […]
# [2] = FTIR spectroscopy in transmission mode, amide-I spectra of protein A with polypeptides; type: physicochemical; details: protein A with PlL and/or PdL, 1 mg mL^−1 each, D2O, 0.15M NaCl
# Description: FTIR Spectroscopy in transmission mode. Transmission spectra were measured on an EQUINOX 55 spectrophotometer (Bruker, Wissembourg, France) using a DTGS detector. Solutions were flown into a sample cell holder (SPECAC P/N 20510). Transmission spectra were measured by using CaF2 windows. Single channel spectra from 128 interferograms were calculated between 4000 and 400 cm^−1 with 2 cm^−1 resolution, using Blackman-Harris three-term apodization and Mertz phase correction with the standard Bruker OPUS/IR software (Version 3.0.4). Each sample (aqueous solution of polypeptide or protein A or both) was prepared at a concentration of 1 mg mL^−1 of each component, in a D2O, 0.15M NaCl (purchased from Prolabo) solution.
# cells = details: replacement of PlL by PdL in the film; cited from earlier work
# human macrophages [3] = details: cited from earlier work
substance,measurement,setting,value
"PA: Staphylococcus aureus protein A, MW=42,000 Da, from Sigma; embedded in the multilayer films as model active ingredient",TNF-α production (biological activity),"human macrophages [1]; d content between 10 and 20%, all embedding depths up to n=20, after 4 hours of contact",full activity
same,TNF-α production (biological activity),"human macrophages [1]; d content between 10 and 20%, embedding depth exceeds 15 pairs of layers, after 4 hours of contact",reaches its full activity
same,TNF-α production (biological response),"human macrophages [1]; d content between 10 and 20%, embedding depth exceeds 15 pairs of layers, initial 3 hours of contact",no biological response
same,"TNF-α production (biological activity), time course","human macrophages [1]; d content between 10 and 20%, embedding depths up to 5 pairs of layers","increases continuously in time, the plateau value being reached after 4 hours of contact"
same,TNF-α production (cellular response),"human macrophages [1]; n=0: PA adsorbed on top of the film, direct contact with cells, lasts at least up to 6 hours",rapid cellular response is observed already after one hour of contact
same,TNF-α production (biological activity),"human macrophages [1]; x between 30 and 40%, PA embedded under 1 layer pair",gradually increases after 2 hours of contact
same,TNF-α production (biological activity),"human macrophages [1]; x between 30 and 40%, embedded under 5 pairs of layers, after 6 hours of contact",fully active
same,TNF-α production (biological activity),"human macrophages [1]; x between 30 and 40%, embedded under 5 pairs of layers, first 4 hours",totally suppressed
same,TNF-α production (biological activity),"human macrophages [1]; x between 30 and 40%, embedded under 15 pairs of layers or more, first 6 hours of contact",no longer acts on cells
same,TNF-α production (biological activity),"human macrophages [1]; x equals 50% or more of d enantiomer, PA embedded under a (PL/PGA/PL) trilayer",totally suppressed
same,Contact of macrophages with embedded protein A (CLSM),macrophages,come into contact with protein A
same,Effect of polypeptide interaction on secondary structure of protein A (amide-I spectra),[2],do not affect the secondary structure of protein A
same,Cellular communication with embedded PA,cells,prevents cellular communication with embedded PA
same,Cytokine expression on PA stimulation,human macrophages [3],rapid expression of both the pro-inflammatory cytokine TNF-α and the anti-inflammatory cytokine IL-10

# From patent publication US20080171070A1, “Polyelectrolyte Multilayer Film, Preparation And Uses Thereof” (priority 2005, published 2008)
